Source: patent US12714709B2, “Pharmaceutical compositions comprising 2-[(4S)-8-fluoro-2-[4-(3-methoxyphenyl)piperazin-1-yl]-3-[2-methoxy-5-(trifluoromethyl)phenyl]-4H-quinazolin-4-yl]acetate and sodium ions” (priority 2020, dated 2026)
Structures can show the parent of a compound that is named as a salt. Where two headings read alike, the source gives them in different places.

What was measured:
[1] = pH of letermovir forms and of letermovir free base with NaOH equivalents in water; assay type: physicochemical; details: for Initial pH / pH after 1 week: no NaOH added
Method: The pH value of the samples was measured with a calibrated pH meter EUTEGH CAKTON PH/Ion 510 Serial n° 172361 with a Polilyte lab electrode. The sample is stirred and the electrode is introduced. A measurement is performed until the pH value is stable. Between measurements the electrode is thoroughly rinsed with water. The pH measurements were performed with an analysis volume of ~1-2 mL and a defined temperature of 22° C.±3° C. A 3-point calibration of the pH meter was performed on a daily basis, by using buffers with pH 7.00, pH 4.01 and pH 10.01 (Hamilton Duracal buffer).
(§1) A first set of letermovir samples was prepared by dissolving letermovir free base, letermovir sodium salt amorphous, letermovir sodium salt trihydrate or letermovir sodium salt monohydrate in water to prepare the solutions with the concentration of 20 mg/mL and 100 mg/mL with respect to letermovir free base in order to determine the differences in the pH immediately after dissolution and after 1 week and to check precipitation effects and solubility.
A second set of samples was prepared by adding different equivalents of sodium hydroxide (0.84, 0.86, 0.88 and 0.9 eq.) to letermovir free base solutions. Blank solutions with the same amounts of water and sodium hydroxide equivalents and without letermovir were also prepared for comparative reasons.
(§2) Procedure: The corresponding amount of water was added to each sample with further addition of the respective equivalents of 1 M aqueous NaOH to the samples of second set (Table 4, Table 5 and Table 6). No addition of NaOH was applied to the first set of samples.
(§3) The suspensions were stirred at room temperature and the pH was determined immediately after the preparation and after 1 week. The solubility and precipitation effects were also checked (Table 7, Table 8 and Table 9). […]

[2] = Solubility/precipitation in water, visual inspection; assay type: physicochemical; details: for precipitation effects / dissolution over time, visual inspection: in water without sodium hydroxide, 20 and 100 mg/mL, over 1 week
Method: as §1, with “solubility. […]” for “solubility.”
as §2, §3

[3] = 20 mg/ml with respect to free base in water
[4] = 100 mg/ml with respect to free base in water
[5] = 20 mg/ml with respect to free base in water, Monohydrate
[6] = 100 mg/ml with respect to free base in water, Monohydrate
[7] = 20 mg/ml with respect to free base in water, Trihydrate
[8] = 100 mg/ml with respect to free base in water, Trihydrate

COc1cccc(N2CCN(C3=Nc4c(F)cccc4[C@H](CC(=O)O)N3c3cc(C(F)(F)F)ccc3OC)CC2)c1 [Free Base, 2-[(4S)-8-fluoro-2-[4-(3-methoxyphenyl)-piperazin-1-yl]-3-[2-methoxy-5-(trifluoromethyl)phenyl]-4H-quinazolin-4-yl]acetic acid]
Initial pH [1, 3]: 6.1 | pH after 1 week [1, 3]: 6.1 | Initial pH [1, 4]: 6.3 | pH after 1 week [1, 4]: 6.2 | pH values of the solutions/suspension in water ([1]; in water without sodium hydroxide, 20 and 100 mg/mL, initial and after 1 week, listed as letermovir free base): around 6 | Solubility/Precipitation ([2]; 20 mg/ml with respect to free base in water, no NaOH added): Insoluble | Solubility/Precipitation ([2]; 100 mg/ml with respect to free base in water, no NaOH added): Insoluble | precipitation effects / dissolution over time, visual inspection ([2]; listed as letermovir free base): did not dissolve

COc1cccc(N2CCN(C3=Nc4c(F)cccc4[C@H](CC(=O)[O-])N3c3cc(C(F)(F)F)ccc3OC)CC2)c1.[Na+] [Sodium Salt Amorphous]
Initial pH [1, 3]: 9.2 | pH after 1 week [1, 3]: 9.0 | Initial pH [1, 4]: 9.3 | pH after 1 week [1, 4]: 9.1 | Solubility/Precipitation [2]: Clear solution | precipitation effects / dissolution over time, visual inspection [2]: completely clear without precipitation effects

COc1cccc(N2CCN(C3=Nc4c(F)cccc4[C@H](CC(=O)O)N3c3cc(C(F)(F)F)ccc3OC)CC2)c1 [Sodium Salt Monohydrate]
Initial pH [1, 5]: 9.2 | pH after 1 week [1, 5]: 8.9 | Initial pH [1, 6]: 9.2 | pH after 1 week [1, 6]: 9.0 | Solubility/Precipitation ([2]; 20 mg/ml with respect to free base in water, no NaOH added, Monohydrate): Clear solution | Solubility/Precipitation ([2]; 100 mg/ml with respect to free base in water, no NaOH added, Monohydrate): Clear solution | precipitation effects / dissolution over time, visual inspection ([2]; listed as letermovir sodium salt monohydrate, Monohydrate): completely clear without precipitation effects

COc1cccc(N2CCN(C3=Nc4c(F)cccc4[C@H](CC(=O)O)N3c3cc(C(F)(F)F)ccc3OC)CC2)c1 [Sodium Salt Trihydrate]
Initial pH [1, 7]: 9.5 | pH after 1 week [1, 7]: 9.2 | Initial pH [1, 8]: 9.5 | pH after 1 week [1, 8]: 9.2 | Solubility/Precipitation ([2]; 20 mg/ml with respect to free base in water, no NaOH added, Trihydrate): Clear solution | Solubility/Precipitation ([2]; 100 mg/ml with respect to free base in water, no NaOH added, Trihydrate): Clear solution | precipitation effects / dissolution over time, visual inspection ([2]; listed as letermovir sodium dalt trihydrate, Trihydrate): completely clear without precipitation effects
